Reference: patent publication US20040023295A1, “Methods and systems for analyzing complex biological systems” (priority 2001, published 2004)

Test system: Saccharomyces cerevisiae wild type strain BY4743
Experiment: Yeast azole drug experiment AF1: metabolite analysis (GC-MS, LC-MS)
Format: cell-based

SMILES: C[C@@H]1[C@H](O)[C@@H](C)/C=C/C=C/C=C/C=C/C=C/C=C/C=C/[C@H](O[C@@H]2O[C@H](C)[C@@H](O)[C@H](N)[C@@H]2O)C[C@@H]2O[C@](O)(C[C@@H](O)C[C@@H](O)[C@H](O)CC[C@@H](O)C[C@@H](O)CC(=O)O[C@H]1C)C[C@H](O)[C@H]2C(=O)O [Amphoteracin B]
- Fold Change urocanic acid (nLC): 0
- Fold Change xanthosine-DiH2O (nLC): 0
- Fold Change zeatin (nLC): 0
- Fold Change urocanic acid (pLC): 0
- Fold Change xanthosine (diH2O) (pLC): 0
- Fold Change zeatin (pLC): 0
- Fold Change of metabolite disaccaride2 (platform GC, p-Value 0.000388379): −0.9977
- Fold Change of metabolite disaccaride3 (platform GC, p-Value 0.000700744): −0.9977
- Fold Change of metabolite tms glutamine3 (platform GC, p-Value 0.003279434): −0.8935
- Fold Change of metabolite phenylalanine (platform GC, p-Value 0.010760299): −0.9797
- Fold Change of metabolite ornithine3 (platform GC, p-Value 0.011300115): −0.9853
- Fold Change of metabolite TMS mevalonic acid lactone (platform GC, p-Value 0.012983194): −0.9767
- Fold Change of metabolite malic acid (platform GC, p-Value 0.015444108): −0.963
- Fold Change of metabolite leucine (platform GC, p-Value 0.015876175): −0.9443
- Fold Change of metabolite glutamine (platform GC, p-Value 0.019324613): −0.9116
- Fold Change of metabolite sugar? (platform GC, p-Value 0.019518223): −0.933
- Fold Change of metabolite isoleucine (platform GC, p-Value 0.021030517): −0.9533
- Fold Change of metabolite aspartic acid (platform GC, p-Value 0.024172801): −0.9743
- Fold Change of metabolite tms tyrosine3 (platform GC, p-Value 0.029953667): −0.9473
- Fold Change of metabolite tms lysine4 (platform GC, p-Value 0.032217789): −0.9783
- Fold Change of metabolite glycanopyrose (platform GC, p-Value 0.041202857): −0.958
- Fold Change of metabolite alanine (platform GC, p-Value 0.054639399): −0.7773
- Fold Change of metabolite threonine3 (platform GC, p-Value 0.063199416): −0.8933
- Fold Change of metabolite threonine2 (platform GC, p-Value 0.073159868): −0.8553
- Fold Change of metabolite glycerol (platform GC, p-Value 0.089234962): −0.815
- Fold Change of metabolite ergosterol (platform GC, p-Value 0.114118055): 2.303
- Fold Change of metabolite fucosterol (platform GC, p-Value 0.186711806): −0.6553
- Fold Change of metabolite iso citric acid (platform GC, p-Value 0.233348939): −0.6183
- Fold Change of metabolite squalene (platform GC, p-Value 0.254158772): −0.5745
- Fold Change of metabolite oleic acid (platform GC, p-Value 0.325422554): −0.4593
- Fold Change of metabolite glycine (platform GC, p-Value 0.431923912): 0.8807
- Fold Change of metabolite lysine (platform GC, p-Value 0.488896519): −0.3925
- Fold Change of metabolite palmiteliadic acid (platform GC, p-Value 0.503020409): 0.515
- Fold Change of metabolite tms tyrosine2 (platform GC, p-Value 0.601581614): −0.3593
- Fold Change of metabolite octadecanoic acid (platform GC, p-Value 0.660192025): 0.21
- Fold Change of metabolite mevalonic acid lactone (platform GC, p-Value 0.690626296): −0.1276
- Fold Change of metabolite pyrimidine (platform GC, p-Value 0.744108261): −0.185
- Fold Change of metabolite tetradecanoic acid (platform GC, p-Value 0.793963653): 0.07967
- Fold Change of metabolite hexadecanoic acid (platform GC, p-Value 0.921125845): −0.2427
- Fold Change of metabolite phosphate (platform GC, p-Value 0.983733869): −0.007333
- Fold Change of metabolite campesterol (platform GC, p-Value 1): 0
- Fold Change of metabolite desmosterol (platform GC, p-Value 1): 0
- Fold Change of metabolite ornithine2 (platform GC, p-Value 1.48992E−05): −1
- Fold Change of metabolite asparagine (platform GC, p-Value 6.41E−06): −1
- Fold Change of metabolite disaccaride1 (platform GC, p-Value 7.54E−06): −1
- Fold Change of metabolite lanosterol (platform GC, p-Value 7.71E−06): −1
- Fold Change of metabolite kinetin (platform nLC (first kinetin line), p-Value 1): 0
- Fold Change of metabolite kinetin (platform nLC (second kinetin line), p-Value 1): 0
- Fold Change of metabolite cytidine (platform nLC, p-Value 0.000680198): −0.9986
- Fold Change of metabolite isocitric/citric/qu (platform nLC, p-Value 0.027544382): 2.549
- Fold Change of metabolite lactic acid (platform nLC, p-Value 0.077524891): −0.02583
- Fold Change of metabolite allantoin (platform nLC, p-Value 0.149169352): 3.97
- Fold Change of metabolite orotic acid (platform nLC, p-Value 0.186179266): 8380
- Fold Change of metabolite succinic (platform nLC, p-Value 0.193450596): 0.8663
- Fold Change of metabolite 3-indolylacetonitri (platform nLC, p-Value 0.197015297): −0.9998
- Fold Change of metabolite citrulline (platform nLC, p-Value 0.217809679): 1659
- Fold Change of metabolite 2-ketobutyric acid (platform nLC, p-Value 0.225631474): −0.9992
- Fold Change of metabolite sucrose (platform nLC, p-Value 0.225682636): 0.4493
- Fold Change of metabolite fumaric/3m2oxobutan (platform nLC, p-Value 0.238894937): 0.4423
- Fold Change of metabolite glucosamine6PO4 (platform nLC, p-Value 0.273438701): −0.9951
- Fold Change of metabolite gallic acid (platform nLC, p-Value 0.29960644): 0.1622
- Fold Change of metabolite arginine (platform nLC, p-Value 0.315413423): −0.4885
- Fold Change of metabolite biotin (platform nLC, p-Value 0.363209057): 1.077
- Fold Change of metabolite nopaline (platform nLC, p-Value 0.369522244): 0.3342
- Fold Change of metabolite hypoxanthine (platform nLC, p-Value 0.372039959): 0.1655
- Fold Change of metabolite tryptophan (platform nLC, p-Value 0.380816515): 1.142
- Fold Change of metabolite DLaminoadipic acid (platform nLC, p-Value 0.40985594): 1.411
- Fold Change of metabolite inostol/glucos/sorb (platform nLC, p-Value 0.41837757): −0.5905
- Fold Change of metabolite guanosine (platform nLC, p-Value 0.425021511): 1.131
- Fold Change of metabolite caffeic acid (platform nLC, p-Value 0.427037943): −0.5882
- Fold Change of metabolite ornithine (platform nLC, p-Value 0.473753211): 2.534
- Fold Change of metabolite malic acid (platform nLC, p-Value 0.497517178): 0.6212
- Fold Change of metabolite proline (platform nLC, p-Value 0.518220081): 0.4603
- Fold Change of metabolite 2-ketoglutaric (platform nLC, p-Value 0.622408732): 8.791
- Fold Change of metabolite alanine (platform nLC, p-Value 0.62524207): 0.1599
- Fold Change of metabolite sorbitol/mannitol (platform nLC, p-Value 0.68492695): 0.2162
- Fold Change of metabolite aspartic (platform nLC, p-Value 0.703732114): 0.2407
- Fold Change of metabolite pyridoxine (platform nLC, p-Value 0.708651225): −0.1294
- Fold Change of metabolite selenoDL-methionine (platform nLC, p-Value 0.711447529): 0.8515
- Fold Change of metabolite glutamic/acetylseri (platform nLC, p-Value 0.733962176): 0.1414
- Fold Change of metabolite asparagine (platform nLC, p-Value 0.758489047): 0.1511
- Fold Change of metabolite phenylalanine (platform nLC, p-Value 0.76165051): −0.1906
- Fold Change of metabolite leucine/isoleucine/ (platform nLC, p-Value 0.763305915): 0.1319
- Fold Change of metabolite serine (platform nLC, p-Value 0.766811518): 0.1091
- Fold Change of metabolite threonine/homoserin (platform nLC, p-Value 0.769444989): 0.1267
- Fold Change of metabolite allantoic acid (platform nLC, p-Value 0.777964345): −0.1456
- Fold Change of metabolite tetradecanoic acid (platform nLC, p-Value 0.782765706): −0.07723
- Fold Change of metabolite 4aminobutyrate/dimg (platform nLC, p-Value 0.820379809): −0.1983
- Fold Change of metabolite decanoic acid (platform nLC, p-Value 0.824169685): −0.08716
- Fold Change of metabolite glutamine/lysine (platform nLC, p-Value 0.835677767): 0.07919
- Fold Change of metabolite NacetylL-glutamate (platform nLC, p-Value 0.840704909): −0.1078
- Fold Change of metabolite menthol* (platform nLC, p-Value 0.852876357): −0.07013
- Fold Change of metabolite pipecolic acid (platform nLC, p-Value 0.871015411): 0.08112
- Fold Change of metabolite sugar-phosphate (platform nLC, p-Value 0.878141701): −0.1067
- Fold Change of metabolite oleic acid (platform nLC, p-Value 0.880270386): 0.689
- Fold Change of metabolite aconitic acid (platform nLC, p-Value 0.891314692): 0.5426
- Fold Change of metabolite palmitic acid (platform nLC, p-Value 0.90280612): 0.3979
- Fold Change of metabolite nicotinic acid (platform nLC, p-Value 0.972130606): 0.3131
- Fold Change of metabolite lauric acid (platform nLC, p-Value 0.972245476): 0.1225
- Fold Change of metabolite 4-methylcatechol (platform nLC, p-Value 1): 0
